Source: ChEMBL document CHEMBL4340528, “Profiling withanolide A for therapeutic targets in neurodegenerative diseases” (Bioorg Med Chem, 2019)

What was measured:
[1] = system: SH-SY5Y; test: Induction of neurite outgrowth in human SH-SY5Y cells assessed as increase in neurite length of more than 50 micrometer by measuring cell differentiation at 1 uM incubated for 6 days by Giemsa staining based phase contrast microscopic analysis relative to control; format: functional
[2] = system: SH-SY5Y; test: Induction of neurite outgrowth in human SH-SY5Y cells assessed as increase in neurite length of more than 50 micrometer by measuring cell differentiation at 1 uM in presence of dexamethasone incubated for 6 days by Giemsa staining based phase contrast microscopic analysis relative to control; format: functional
[3] = system: SH-SY5Y; test: Induction of neurite outgrowth in human SH-SY5Y cells assessed as increase in neurite length of more than 50 micrometer by measuring cell differentiation at 1 uM in presence of mifepristone incubated for 6 days by Giemsa staining based phase contrast microscopic analysis relative to control; format: functional
[4] = molecular target: Neutral cholesterol ester hydrolase 1 (Homo sapiens) (UniProt Q6PIU2); conditions: A549, Lysate
Description: Binding affinity to NCEH1 in human A549 cells lysates grown on SILAC media at 10 uM incubated for 1 hr by LC-MS/MS analysis relative to untreated control

[5] = molecular target: Histidine--tRNA ligase, cytoplasmic (Homo sapiens) (UniProt P12081); conditions: A549, Lysate
Description: Binding affinity to HARS in human A549 cells lysates grown on SILAC media at 10 uM incubated for 1 hr by LC-MS/MS analysis relative to untreated control

[6] = molecular target: Non-selective voltage-gated ion channel VDAC2 (Homo sapiens) (UniProt P45880); conditions: A549, Lysate
Chain of Non-selective voltage-gated ion channel VDAC2 (Homo sapiens) (P45880 whole entry, the tested form may be a part): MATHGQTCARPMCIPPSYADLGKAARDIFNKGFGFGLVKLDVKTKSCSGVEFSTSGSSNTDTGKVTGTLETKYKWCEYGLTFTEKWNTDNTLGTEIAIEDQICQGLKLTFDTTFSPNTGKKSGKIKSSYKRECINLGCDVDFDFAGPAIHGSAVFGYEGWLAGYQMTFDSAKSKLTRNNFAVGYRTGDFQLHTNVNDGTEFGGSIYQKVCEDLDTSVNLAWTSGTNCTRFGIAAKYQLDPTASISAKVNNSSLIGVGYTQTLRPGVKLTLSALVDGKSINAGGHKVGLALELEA
Description: Binding affinity to VDAC2 in human A549 cells lysates grown on SILAC media at 10 uM incubated for 1 hr by LC-MS/MS analysis relative to untreated control

[7] = molecular target: G patch domain-containing protein 8 (Homo sapiens) (UniProt Q9UKJ3); conditions: A549, Lysate
Description: Binding affinity to GPATCH8 in human A549 cells lysates grown on SILAC media at 10 uM incubated for 1 hr by LC-MS/MS analysis relative to untreated control

[8] = molecular target: Ubiquitin carboxyl-terminal hydrolase 5 (Homo sapiens) (UniProt P45974); conditions: A549, Lysate
Description: Binding affinity to USP5 in human A549 cells lysates grown on SILAC media at 10 uM incubated for 1 hr by LC-MS/MS analysis relative to untreated control

[9] = molecular target: Heme oxygenase 2 (Homo sapiens) (UniProt P30519); conditions: A549, Lysate
Description: Binding affinity to HMOX2 in human A549 cells lysates grown on SILAC media at 10 uM incubated for 1 hr by LC-MS/MS analysis relative to untreated control

[10] = molecular target: Ubiquitin carboxyl-terminal hydrolase 10 (Homo sapiens) (UniProt Q14694); conditions: A549, Lysate
Description: Binding affinity to USP10 in human A549 cells lysates grown on SILAC media at 10 uM incubated for 1 hr by LC-MS/MS analysis relative to untreated control

[11] = molecular target: T1, 1,25-dihydroxyvitamin D(3) 24-hydroxylase, mitochondrial (Homo sapiens, UniProt Q07973); test: Binding affinity to CYP24A1 in human A549 cells lysates grown on SILAC media at 10 uM incubated for 1 hr by LC-MS/MS analysis; format: subcellular, Lysate; conditions: a549, 1 h
T1 sequence (Q07973 whole entry): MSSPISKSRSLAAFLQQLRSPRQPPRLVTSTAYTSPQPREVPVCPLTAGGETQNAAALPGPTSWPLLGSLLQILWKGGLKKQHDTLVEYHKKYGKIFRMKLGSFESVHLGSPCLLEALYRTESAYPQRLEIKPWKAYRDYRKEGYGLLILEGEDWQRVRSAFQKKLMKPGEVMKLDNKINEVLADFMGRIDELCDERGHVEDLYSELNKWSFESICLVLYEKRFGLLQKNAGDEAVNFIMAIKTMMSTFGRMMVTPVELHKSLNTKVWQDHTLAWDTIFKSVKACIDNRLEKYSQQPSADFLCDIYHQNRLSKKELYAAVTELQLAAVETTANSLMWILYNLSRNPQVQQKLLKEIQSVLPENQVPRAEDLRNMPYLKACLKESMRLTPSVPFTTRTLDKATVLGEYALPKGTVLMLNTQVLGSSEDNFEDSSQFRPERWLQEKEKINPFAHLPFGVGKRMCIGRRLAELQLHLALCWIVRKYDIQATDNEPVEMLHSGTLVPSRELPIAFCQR

[12] = molecular target: Prostaglandin E synthase 2 (Homo sapiens) (UniProt Q9H7Z7); conditions: A549, Lysate
Chain of Prostaglandin E synthase 2 (Homo sapiens) (Q9H7Z7 whole entry): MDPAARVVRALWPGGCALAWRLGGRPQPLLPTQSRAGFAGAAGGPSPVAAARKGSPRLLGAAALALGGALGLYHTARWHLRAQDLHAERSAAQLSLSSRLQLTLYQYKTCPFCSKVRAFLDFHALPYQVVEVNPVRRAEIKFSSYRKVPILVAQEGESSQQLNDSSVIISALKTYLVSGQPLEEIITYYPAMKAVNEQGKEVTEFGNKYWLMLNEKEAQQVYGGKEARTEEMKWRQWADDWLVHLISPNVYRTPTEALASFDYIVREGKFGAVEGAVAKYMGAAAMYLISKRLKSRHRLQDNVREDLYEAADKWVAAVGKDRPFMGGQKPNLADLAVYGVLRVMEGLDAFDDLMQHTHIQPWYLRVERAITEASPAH
Description: Binding affinity to PTGES2 in human A549 cells lysates grown on SILAC media at 10 uM incubated for 1 hr by LC-MS/MS analysis relative to untreated control

[13] = molecular target: Mitochondrial import receptor subunit TOM40 homolog (Homo sapiens) (UniProt O96008); conditions: A549, Lysate
Chain of Mitochondrial import receptor subunit TOM40 homolog (Homo sapiens) (O96008 whole entry): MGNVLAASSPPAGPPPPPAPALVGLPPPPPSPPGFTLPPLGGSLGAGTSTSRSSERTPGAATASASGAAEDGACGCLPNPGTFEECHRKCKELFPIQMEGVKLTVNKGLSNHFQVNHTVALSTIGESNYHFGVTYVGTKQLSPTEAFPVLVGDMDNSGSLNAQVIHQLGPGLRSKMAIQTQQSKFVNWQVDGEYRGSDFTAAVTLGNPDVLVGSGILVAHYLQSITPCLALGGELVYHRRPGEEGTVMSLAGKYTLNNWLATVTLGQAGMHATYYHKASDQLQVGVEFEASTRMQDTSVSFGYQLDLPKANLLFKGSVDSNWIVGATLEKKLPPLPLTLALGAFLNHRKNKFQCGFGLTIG
Description: Binding affinity to TOMM40 in human A549 cells lysates grown on SILAC media at 10 uM incubated for 1 hr by LC-MS/MS analysis relative to untreated control

[14] = molecular target: Mitochondrial antiviral-signaling protein (Homo sapiens) (UniProt Q7Z434); conditions: A549, Lysate
Description: Binding affinity to MAVS in human A549 cells lysates grown on SILAC media at 10 uM incubated for 1 hr by LC-MS/MS analysis relative to untreated control

[15] = molecular target: T1, 1,25-dihydroxyvitamin D(3) 24-hydroxylase, mitochondrial; test: Binding affinity to CYP24A1 in human A549 cells lysates grown on SILAC media at 10 uM incubated for 1 hr by LC-MS/MS analysis relative to untreated control; format: subcellular, Lysate; conditions: a549, 1 h
[16] = molecular target: Minor histocompatibility antigen H13 (Homo sapiens) (UniProt Q8TCT9); conditions: A549, Lysate
Chain of Minor histocompatibility antigen H13 (Homo sapiens) (Q8TCT9 whole entry): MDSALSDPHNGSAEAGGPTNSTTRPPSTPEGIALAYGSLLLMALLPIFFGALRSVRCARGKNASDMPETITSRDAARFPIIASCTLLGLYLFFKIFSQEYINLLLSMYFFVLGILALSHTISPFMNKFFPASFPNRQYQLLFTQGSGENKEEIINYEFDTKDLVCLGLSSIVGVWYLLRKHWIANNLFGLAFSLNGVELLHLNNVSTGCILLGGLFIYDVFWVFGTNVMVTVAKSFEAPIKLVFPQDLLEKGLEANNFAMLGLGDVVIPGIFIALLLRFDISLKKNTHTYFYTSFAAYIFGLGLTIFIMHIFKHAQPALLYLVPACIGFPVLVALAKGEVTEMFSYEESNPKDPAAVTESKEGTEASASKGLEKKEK
Description: Binding affinity to HM13 in human A549 cells lysates grown on SILAC media at 10 uM incubated for 1 hr by LC-MS/MS analysis relative to untreated control

[17] = molecular target: Reticulon-4 (Homo sapiens) (UniProt Q9NQC3); conditions: A549, Lysate
Chain of Reticulon-4 (Homo sapiens) (Q9NQC3 whole entry): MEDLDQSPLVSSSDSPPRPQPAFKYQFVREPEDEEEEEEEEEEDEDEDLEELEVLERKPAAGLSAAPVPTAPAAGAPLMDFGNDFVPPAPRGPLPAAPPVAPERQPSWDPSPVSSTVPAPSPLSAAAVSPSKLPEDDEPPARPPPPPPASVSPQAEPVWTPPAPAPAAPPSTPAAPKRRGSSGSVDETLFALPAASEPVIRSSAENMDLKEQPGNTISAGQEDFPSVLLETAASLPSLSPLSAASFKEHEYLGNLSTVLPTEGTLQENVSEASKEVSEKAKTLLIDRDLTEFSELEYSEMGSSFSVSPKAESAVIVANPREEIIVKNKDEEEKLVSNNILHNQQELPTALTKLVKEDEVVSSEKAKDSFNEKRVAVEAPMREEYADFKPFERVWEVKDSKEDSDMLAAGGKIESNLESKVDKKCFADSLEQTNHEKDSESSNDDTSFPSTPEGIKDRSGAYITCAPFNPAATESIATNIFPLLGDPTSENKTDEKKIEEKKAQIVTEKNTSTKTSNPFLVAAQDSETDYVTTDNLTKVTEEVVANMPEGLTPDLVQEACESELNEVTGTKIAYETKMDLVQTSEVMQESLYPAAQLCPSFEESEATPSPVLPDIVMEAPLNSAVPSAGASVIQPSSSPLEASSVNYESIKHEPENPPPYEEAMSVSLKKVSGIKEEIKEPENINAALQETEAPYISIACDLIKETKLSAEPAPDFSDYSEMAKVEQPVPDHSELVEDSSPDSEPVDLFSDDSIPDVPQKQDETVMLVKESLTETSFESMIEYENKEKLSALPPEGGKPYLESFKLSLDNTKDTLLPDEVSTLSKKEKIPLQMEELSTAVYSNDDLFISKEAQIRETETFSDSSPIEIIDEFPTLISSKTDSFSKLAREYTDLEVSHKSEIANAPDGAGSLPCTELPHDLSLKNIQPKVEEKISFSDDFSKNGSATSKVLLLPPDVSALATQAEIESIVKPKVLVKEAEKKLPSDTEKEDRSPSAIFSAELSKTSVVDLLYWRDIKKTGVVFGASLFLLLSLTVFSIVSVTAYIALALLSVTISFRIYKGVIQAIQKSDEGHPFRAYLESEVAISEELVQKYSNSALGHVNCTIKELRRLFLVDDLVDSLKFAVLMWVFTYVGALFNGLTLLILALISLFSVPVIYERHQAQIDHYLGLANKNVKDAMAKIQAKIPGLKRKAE
Description: Binding affinity to RTN4 in human A549 cells lysates grown on SILAC media at 10 uM incubated for 1 hr by LC-MS/MS analysis relative to untreated control

[18] = molecular target: Non-selective voltage-gated ion channel VDAC3 (Homo sapiens) (UniProt Q9Y277); conditions: A549, Lysate
Chain of Non-selective voltage-gated ion channel VDAC3 (Homo sapiens) (Q9Y277 whole entry): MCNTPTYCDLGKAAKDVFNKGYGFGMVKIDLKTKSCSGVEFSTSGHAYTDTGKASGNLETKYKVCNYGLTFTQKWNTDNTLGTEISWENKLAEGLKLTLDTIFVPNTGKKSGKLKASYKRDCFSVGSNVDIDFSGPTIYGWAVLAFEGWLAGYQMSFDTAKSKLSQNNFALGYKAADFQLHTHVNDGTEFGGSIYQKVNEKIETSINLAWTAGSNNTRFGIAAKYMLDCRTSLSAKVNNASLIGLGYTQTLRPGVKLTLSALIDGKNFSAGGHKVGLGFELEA
Description: Binding affinity to VDAC3 in human A549 cells lysates grown on SILAC media at 10 uM incubated for 1 hr by LC-MS/MS analysis relative to untreated control

[19] = molecular target: Trifunctional enzyme subunit beta, mitochondrial (Homo sapiens) (UniProt P55084); conditions: A549, Lysate
Description: Binding affinity to HADHB in human A549 cells lysates grown on SILAC media at 10 uM incubated for 1 hr by LC-MS/MS analysis relative to untreated control

[20] = molecular target: Mitochondrial carrier homolog 2 (Homo sapiens) (UniProt Q9Y6C9); conditions: A549, Lysate
Chain of Mitochondrial carrier homolog 2 (Homo sapiens) (Q9Y6C9 whole entry): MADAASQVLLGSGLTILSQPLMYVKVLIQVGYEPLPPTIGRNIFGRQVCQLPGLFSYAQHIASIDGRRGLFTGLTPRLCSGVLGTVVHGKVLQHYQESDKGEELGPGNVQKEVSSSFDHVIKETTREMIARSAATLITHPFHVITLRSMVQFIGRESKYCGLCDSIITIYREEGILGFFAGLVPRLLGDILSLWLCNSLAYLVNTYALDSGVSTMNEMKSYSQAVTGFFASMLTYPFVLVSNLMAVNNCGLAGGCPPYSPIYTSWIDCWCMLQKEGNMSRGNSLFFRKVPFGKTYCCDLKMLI
Description: Binding affinity to MTCH2 in human A549 cells lysates grown on SILAC media at 10 uM incubated for 1 hr by LC-MS/MS analysis relative to untreated control

[21] = molecular target: Sarcoplasmic/endoplasmic reticulum calcium ATPase 2 (Homo sapiens) (UniProt P16615); conditions: A549, Lysate
Chain of Sarcoplasmic/endoplasmic reticulum calcium ATPase 2 (Homo sapiens) (P16615 whole entry): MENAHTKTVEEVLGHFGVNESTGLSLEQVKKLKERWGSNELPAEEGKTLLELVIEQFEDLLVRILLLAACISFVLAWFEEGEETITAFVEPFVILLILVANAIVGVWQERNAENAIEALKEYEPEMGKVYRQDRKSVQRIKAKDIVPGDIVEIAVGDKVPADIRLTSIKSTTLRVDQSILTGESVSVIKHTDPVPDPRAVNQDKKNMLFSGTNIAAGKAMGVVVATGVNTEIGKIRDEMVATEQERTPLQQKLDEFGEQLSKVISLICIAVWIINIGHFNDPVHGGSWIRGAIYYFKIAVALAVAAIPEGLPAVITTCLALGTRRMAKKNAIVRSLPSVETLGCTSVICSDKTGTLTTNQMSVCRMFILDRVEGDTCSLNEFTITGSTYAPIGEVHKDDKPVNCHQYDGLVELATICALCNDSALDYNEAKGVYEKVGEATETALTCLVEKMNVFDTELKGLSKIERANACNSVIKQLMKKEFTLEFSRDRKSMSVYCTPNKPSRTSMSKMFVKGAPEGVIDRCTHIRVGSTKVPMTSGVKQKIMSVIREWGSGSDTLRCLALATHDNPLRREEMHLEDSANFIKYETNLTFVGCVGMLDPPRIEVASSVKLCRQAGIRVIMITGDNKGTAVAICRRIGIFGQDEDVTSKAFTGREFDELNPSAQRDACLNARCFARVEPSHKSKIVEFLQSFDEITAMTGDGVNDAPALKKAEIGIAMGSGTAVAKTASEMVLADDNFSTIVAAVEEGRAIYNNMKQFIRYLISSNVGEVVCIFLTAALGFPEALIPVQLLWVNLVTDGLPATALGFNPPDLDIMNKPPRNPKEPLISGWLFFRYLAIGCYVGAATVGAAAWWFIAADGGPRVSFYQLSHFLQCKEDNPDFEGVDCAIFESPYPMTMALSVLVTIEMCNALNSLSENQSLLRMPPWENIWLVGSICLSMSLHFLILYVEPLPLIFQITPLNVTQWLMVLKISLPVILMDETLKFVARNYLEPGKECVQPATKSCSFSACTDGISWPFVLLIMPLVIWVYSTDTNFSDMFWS
Description: Binding affinity to ATP2A2 in human A549 cells lysates grown on SILAC media at 10 uM incubated for 1 hr by LC-MS/MS analysis relative to untreated control

[22] = molecular target: Antigen peptide transporter 1 (Homo sapiens) (UniProt Q03518); conditions: A549, Lysate
Description: Binding affinity to TAP1 in human A549 cells lysates grown on SILAC media at 10 uM incubated for 1 hr by LC-MS/MS analysis relative to untreated control

[23] = molecular target: NPC intracellular cholesterol transporter 1 (Homo sapiens) (UniProt O15118); conditions: A549, Lysate
Description: Binding affinity to NPC1 in human A549 cells lysates grown on SILAC media at 10 uM incubated for 1 hr by LC-MS/MS analysis relative to untreated control

[24] = molecular target: Cytoskeleton-associated protein 4 (Homo sapiens) (UniProt Q07065); conditions: A549, Lysate
Chain of Cytoskeleton-associated protein 4 (Homo sapiens) (Q07065 whole entry): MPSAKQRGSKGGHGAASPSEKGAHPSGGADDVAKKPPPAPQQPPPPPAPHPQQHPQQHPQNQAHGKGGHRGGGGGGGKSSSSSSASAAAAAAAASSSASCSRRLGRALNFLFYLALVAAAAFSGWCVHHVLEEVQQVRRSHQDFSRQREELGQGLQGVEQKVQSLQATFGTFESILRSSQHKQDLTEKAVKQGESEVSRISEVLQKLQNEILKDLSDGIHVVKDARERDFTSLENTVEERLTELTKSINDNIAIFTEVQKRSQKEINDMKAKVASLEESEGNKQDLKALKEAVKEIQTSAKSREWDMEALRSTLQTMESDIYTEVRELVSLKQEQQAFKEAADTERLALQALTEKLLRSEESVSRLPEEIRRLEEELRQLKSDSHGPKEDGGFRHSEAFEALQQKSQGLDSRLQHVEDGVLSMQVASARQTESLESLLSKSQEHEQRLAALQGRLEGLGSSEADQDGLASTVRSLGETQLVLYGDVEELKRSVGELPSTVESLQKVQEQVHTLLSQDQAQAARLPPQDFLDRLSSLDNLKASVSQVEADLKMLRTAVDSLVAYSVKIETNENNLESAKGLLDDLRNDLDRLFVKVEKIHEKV
Description: Binding affinity to CKAP4 in human A549 cells lysates grown on SILAC media at 10 uM incubated for 1 hr by LC-MS/MS analysis relative to untreated control

[25] = molecular target: Glutathione S-transferase omega-1 (Homo sapiens) (UniProt P78417); conditions: A549, Lysate
Description: Binding affinity to GSTO1 in human A549 cells lysates grown on SILAC media at 10 uM incubated for 1 hr by LC-MS/MS analysis relative to untreated control

[26] = molecular target: Carnitine O-palmitoyltransferase 1, liver isoform (Homo sapiens) (UniProt P50416); conditions: A549, Lysate
Description: Binding affinity to CPT1A in human A549 cells lysates grown on SILAC media at 10 uM incubated for 1 hr by LC-MS/MS analysis relative to untreated control

[27] = molecular target: von Willebrand factor (Homo sapiens) (UniProt P04275); conditions: A549, Lysate
Description: Binding affinity to VWF in human A549 cells lysates grown on SILAC media at 10 uM incubated for 1 hr by LC-MS/MS analysis relative to untreated control

[28] = molecular target: Glucocorticoid receptor (Homo sapiens) (UniProt P04150); conditions: A549, Lysate
Description: Binding affinity to NR3C1 in human A549 cells lysates grown on SILAC media at 10 uM incubated for 1 hr by LC-MS/MS analysis relative to untreated control

[29] = molecular target: WD repeat and HMG-box DNA-binding protein 1 (Homo sapiens) (UniProt O75717); conditions: A549, Lysate
Description: Binding affinity to WDHD1 in human A549 cells lysates grown on SILAC media at 10 uM incubated for 1 hr by LC-MS/MS analysis relative to untreated control

[30] = molecular target: Serine/threonine-protein kinase greatwall (Homo sapiens) (UniProt Q96GX5); conditions: A549, Lysate
Description: Binding affinity to MASTL in human A549 cells lysates grown on SILAC media at 10 uM incubated for 1 hr by LC-MS/MS analysis relative to untreated control

[31] = molecular target: Cytochrome b5 type B (Homo sapiens) (UniProt O43169); conditions: A549, Lysate
Chain of Cytochrome b5 type B (Homo sapiens) (O43169 whole entry): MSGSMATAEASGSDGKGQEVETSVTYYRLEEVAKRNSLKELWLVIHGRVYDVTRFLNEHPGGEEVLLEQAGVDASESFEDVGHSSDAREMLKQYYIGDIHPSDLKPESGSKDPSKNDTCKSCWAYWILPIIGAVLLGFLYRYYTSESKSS
Description: Binding affinity to CYB5B in human A549 cells lysates grown on SILAC media at 10 uM incubated for 1 hr by LC-MS/MS analysis relative to untreated control

[32] = molecular target: Transcription intermediary factor 1-beta (Homo sapiens) (UniProt Q13263); conditions: A549, Lysate
Description: Binding affinity to TRIM28 in human A549 cells lysates grown on SILAC media at 10 uM incubated for 1 hr by LC-MS/MS analysis relative to untreated control

[33] = molecular target: Polyubiquitin-B (Homo sapiens) (UniProt P0CG47); conditions: A549, Lysate, pooled result: one value given for 5 cell lines, strains, targets or settings
Description: Binding affinity to UBB in human A549 cells lysates grown on SILAC media at 10 uM incubated for 1 hr by LC-MS/MS analysis relative to untreated control

[34] = molecular target: Heat shock protein beta-1 (Homo sapiens) (UniProt P04792); conditions: A549, Lysate
Description: Binding affinity to HSPB1 in human A549 cells lysates grown on SILAC media at 10 uM incubated for 1 hr by LC-MS/MS analysis relative to untreated control

[35] = molecular target: Isocitrate dehydrogenase [NADP] cytoplasmic (Homo sapiens) (UniProt O75874); conditions: A549, Lysate
Description: Binding affinity to IDH1 in human A549 cells lysates grown on SILAC media at 10 uM incubated for 1 hr by LC-MS/MS analysis relative to untreated control

[36] = molecular target: Glutamate--cysteine ligase regulatory subunit (Homo sapiens) (UniProt P48507); conditions: A549, Lysate
Description: Binding affinity to GCLM in human A549 cells lysates grown on SILAC media at 10 uM incubated for 1 hr by LC-MS/MS analysis relative to untreated control

[37] = molecular target: Heterogeneous nuclear ribonucleoprotein F (Homo sapiens) (UniProt P52597); conditions: A549, Lysate
Description: Binding affinity to HNRNPF in human A549 cells lysates grown on SILAC media at 10 uM incubated for 1 hr by LC-MS/MS analysis relative to untreated control

[38] = molecular target: Keratin, type II cuticular Hb1 (Homo sapiens) (UniProt Q14533); conditions: A549, Lysate, pooled result: one value given for 5 cell lines, strains, targets or settings
Description: Binding affinity to KRT81 in human A549 cells lysates grown on SILAC media at 10 uM incubated for 1 hr by LC-MS/MS analysis relative to untreated control

[39] = molecular target: Aldo-keto reductase family 1 member C2 (Homo sapiens) (UniProt P52895); conditions: A549, Lysate
Description: Binding affinity to AKR1C2 in human A549 cells lysates grown on SILAC media at 10 uM incubated for 1 hr by LC-MS/MS analysis relative to untreated control

[40] = molecular target: MKI67 FHA domain-interacting nucleolar phosphoprotein (Homo sapiens) (UniProt Q9BYG3); conditions: A549, Lysate
Description: Binding affinity to MKI67 in human A549 cells lysates grown on SILAC media at 10 uM incubated for 1 hr by LC-MS/MS analysis relative to untreated control

[41] = molecular target: Glutathione S-transferase 3, mitochondrial (Homo sapiens) (UniProt O14880); conditions: A549, Lysate
Description: Binding affinity to MGST3 in human A549 cells lysates grown on SILAC media at 10 uM incubated for 1 hr by LC-MS/MS analysis relative to untreated control

[42] = molecular target: Aldehyde dehydrogenase 1A1 (Homo sapiens) (UniProt P00352); conditions: A549, Lysate
Description: Binding affinity to ALDH1A1 in human A549 cells lysates grown on SILAC media at 10 uM incubated for 1 hr by LC-MS/MS analysis relative to untreated control

[43] = molecular target: Perilipin-3 (Homo sapiens) (UniProt O60664); conditions: A549, Lysate
Description: Binding affinity to PLIN3 in human A549 cells lysates grown on SILAC media at 10 uM incubated for 1 hr by LC-MS/MS analysis relative to untreated control

[44] = molecular target: SAFB-like transcription modulator (Homo sapiens) (UniProt Q9NWH9); conditions: A549, Lysate

Compound: C#CCO/N=C1/CC[C@]2(C)[C@H]3CC[C@]4(C)[C@@H]([C@@](C)(O)[C@H]5CC(C)=C(C)C(=O)O5)CC[C@H]4[C@@H]3[C@@H]3O[C@@H]3[C@@]2(O)C1
- Activity [1]: 50%

Compound: CC1=C(C)C(=O)O[C@@H]([C@](C)(O)[C@H]2CC[C@H]3[C@@H]4[C@@H]5O[C@@H]5[C@@]5(O)CC=CC(=O)[C@]5(C)[C@H]4CC[C@]23C)C1 [WITHANOLIDE A]
- Activity [2]: 46%
- Activity [3]: 47%
- Activity [1]: 46%

Compound: CC#C[C@]1(O)CC[C@H]2[C@@H]3CCC4=CC(=O)CCC4=C3[C@@H](c3ccc(N(C)C)cc3)C[C@@]21C [MIFEPRISTONE]
- Activity [1]: 50%

Compound: C#CCOC(=O)/C(C)=C(C)\C=C\[C@](C)(O)[C@H]1CC[C@H]2[C@@H]3[C@@H]4O[C@@H]4[C@@]4(O)CC=CC(=O)[C@]4(C)[C@H]3CC[C@@]21C
- log2FC [4]: 1.16
- log2FC [5]: 1.86
- log2FC [6]: 3.01
- log2FC [7]: 2.25
- log2FC [8]: 1.08
- log2FC [9]: 7.1
- log2FC [10]: 1.27
- Activity [11]: Active
- log2FC [12]: 4.11
- log2FC [13]: 2.16
- log2FC [14]: 1.62
- log2FC [15]: 1.875
- log2FC [16]: 3.52
- log2FC [17]: 8.71
- log2FC [18]: 1.18
- log2FC [19]: 3.09
- log2FC [20]: 1.38
- log2FC [21]: 3.3
- log2FC [22]: 2.34
- log2FC [23]: 2.08
- log2FC [24]: 2.99
- Activity [2]: 38%
- Activity [3]: 40%
- Activity [1]: 40%
- log2FC [25]: 3.99
- log2FC [26]: 1.41
- log2FC [27]: 1.63
- log2FC [28]: 1.96

Compound: C#CCO/N=C1\CCC[C@]2(O)[C@H]3O[C@H]3[C@H]3[C@@H]4CC[C@H]([C@@](C)(O)[C@H]5CC(C)=C(C)C(=O)O5)[C@@]4(C)CC[C@@H]3[C@@]12C
- Activity [1]: 48%

Compound: C#CCO/N=C1/C=C[C@]2(C)[C@H]3CC[C@]4(C)[C@@H]([C@@](C)(O)[C@H]5CC(C)=C(C)C(=O)O5)CC[C@H]4[C@@H]3[C@@H]3O[C@@H]3[C@@]2(O)C1
- Activity [1]: 55%

Compound: C#CCOC(=O)/C(C)=C(C)\C=C\[C@](C)(O)[C@H]1CC[C@H]2[C@@H]3[C@@H]4O[C@@H]4C4=CC=CC(=O)[C@]4(C)[C@H]3CC[C@@]21C
- log2FC [29]: 1.74
- log2FC [6]: 4.38
- log2FC [30]: 1.28
- log2FC [31]: 4.61
- log2FC [32]: 2.45
- log2FC [33]: 1.47
- log2FC [13]: 2.05
- log2FC [34]: 2.14
- log2FC [35]: 2.46
- log2FC [36]: 2.81
- log2FC [18]: 2.96
- log2FC [20]: 2.11
- log2FC [37]: 1.88
- log2FC [21]: 4.85
- log2FC [38]: 3.66
- log2FC [39]: 1.02
- log2FC [40]: 1.89
- log2FC [24]: 1.79
- log2FC [41]: 3.04
- log2FC [42]: 1.25
- Activity [2]: 40%
- Activity [3]: 44%
- Activity [1]: 41%
- log2FC [28]: 2.03

Compound: C[C@@H]1C[C@H]2[C@@H]3CCC4=CC(=O)C=C[C@]4(C)[C@@]3(F)[C@@H](O)C[C@]2(C)[C@@]1(O)C(=O)CO [DEXAMETHASONE]
- Activity [1]: 16%

Compound: C#CCO/N=C1\C=CC[C@]2(O)[C@H]3O[C@H]3[C@H]3[C@@H]4CC[C@H]([C@@](C)(O)[C@H]5CC(C)=C(C)C(=O)O5)[C@@]4(C)CC[C@@H]3[C@@]12C
- log2FC [43]: 0.964
- log2FC [31]: 7.33
- log2FC [44]: 2.27
- Activity [11]: Active
- log2FC [12]: 1.16
- log2FC [16]: 2.25
- log2FC [17]: 3.73
- Activity [2]: 37%
- Activity [3]: 33%
- Activity [1]: 58%

Compound: CC1=C(/C=C/C(C)=C/C=C/C(C)=C/C(=O)O)C(C)(C)CCC1 [TRETINOIN]
- Activity [1]: 45%
